Legend:
Format in all cases: biochemical
[1] = target: CDK7/CycH/Mat1 (Homo sapiens, UniProt P50613); assay: CDK7 Enzymatic Activity Assay (Lance Kinase Activity Assay, FRET); settings: CDK7/CycH/Mat1, 25 μM ATP final; class ranges; read-out: CDK7: IC50 [nM] for CDK7 inhibition
Method in brief: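 TR-FRET (LANCE) kinase assay: CDK7/CycH/Mat1 phosphorylates Ulight-MBP substrate for 1 h at room temperature in pH 7.5 HEPES buffer; detection 1 h with Eu-labelled anti-phospho antibody plus EDTA.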

[2] = target: T1, CDK2/CycA (Homo sapiens, UniProt P24941); assay: CDK2 Enzymatic Activity Assay (Lance Kinase Activity Assay, FRET); settings: Table 5B, class symbols per IC50 [nM] ranges of b581; read-out: CDK2: Selectivity of CDK7 inhibition over CDK2 inhibition
T1 construct: purchased Proqinase
Method in brief: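 Compounds in an 8-step, 1:3 dilution series were incubated 1 h at room temperature with CDK2/CycA, ULight-MBP substrate and ATP in pH 7.5 HEPES buffer.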

[3] = target: CDK9/Cyclin T1 (Homo sapiens, UniProt P50750); assay: CDK9 Enzymatic Activity Assay (Lance Kinase Activity Assay, FRET); settings: Table 5B, class symbols per IC50 [nM] ranges of b581; read-out: CDK9: Selectivity of CDK7 inhibition over CDK9 inhibition
CDK9/Cyclin T1, sequence (P50750 whole entry): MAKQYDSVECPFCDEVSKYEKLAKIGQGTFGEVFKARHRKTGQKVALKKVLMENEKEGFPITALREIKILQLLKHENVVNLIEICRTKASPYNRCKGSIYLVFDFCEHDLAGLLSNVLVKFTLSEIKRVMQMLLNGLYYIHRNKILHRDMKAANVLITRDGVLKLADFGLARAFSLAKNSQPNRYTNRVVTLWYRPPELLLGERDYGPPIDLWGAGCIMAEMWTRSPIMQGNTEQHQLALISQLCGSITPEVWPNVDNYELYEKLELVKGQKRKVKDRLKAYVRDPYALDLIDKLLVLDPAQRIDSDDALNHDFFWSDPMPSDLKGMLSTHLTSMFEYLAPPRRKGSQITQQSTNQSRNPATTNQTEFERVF
CDK9/Cyclin T1, sequence (O60563 whole entry partner): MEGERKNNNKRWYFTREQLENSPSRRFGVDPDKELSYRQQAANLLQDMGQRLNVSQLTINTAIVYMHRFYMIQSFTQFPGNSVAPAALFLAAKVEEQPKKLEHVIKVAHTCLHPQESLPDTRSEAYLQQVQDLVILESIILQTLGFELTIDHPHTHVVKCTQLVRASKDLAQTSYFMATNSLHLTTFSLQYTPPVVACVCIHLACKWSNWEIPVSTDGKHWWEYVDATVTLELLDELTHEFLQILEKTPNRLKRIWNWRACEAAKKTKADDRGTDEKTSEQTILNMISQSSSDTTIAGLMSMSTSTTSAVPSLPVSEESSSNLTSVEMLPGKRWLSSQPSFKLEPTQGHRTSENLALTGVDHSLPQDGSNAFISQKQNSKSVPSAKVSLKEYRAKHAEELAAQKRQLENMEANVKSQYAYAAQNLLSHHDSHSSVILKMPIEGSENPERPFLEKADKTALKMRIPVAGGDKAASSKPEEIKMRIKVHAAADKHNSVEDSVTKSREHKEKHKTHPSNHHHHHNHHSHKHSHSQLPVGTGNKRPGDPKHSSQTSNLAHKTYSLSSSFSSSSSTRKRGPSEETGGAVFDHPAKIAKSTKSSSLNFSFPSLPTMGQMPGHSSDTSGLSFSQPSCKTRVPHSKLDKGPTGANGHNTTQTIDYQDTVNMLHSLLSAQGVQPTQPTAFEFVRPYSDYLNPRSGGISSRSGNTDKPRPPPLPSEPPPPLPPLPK
Method in brief: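 CDK9/cyclin T1 phosphorylation of a ULight-MBP peptide was run for 1 h at room temperature in pH 7.5 HEPES buffer with MgCl2, EGTA, DTT and Tween-20. It was followed by 1 h with Eu-anti-phospho-MBP antibody (4 nM) in EDTA detection buffer. TR-FRET loss gave IC50 from 8-point, 1:3 sigmoidal dose-response curves.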

CDK7/CycH/Mat1, sequence (P50613 whole entry): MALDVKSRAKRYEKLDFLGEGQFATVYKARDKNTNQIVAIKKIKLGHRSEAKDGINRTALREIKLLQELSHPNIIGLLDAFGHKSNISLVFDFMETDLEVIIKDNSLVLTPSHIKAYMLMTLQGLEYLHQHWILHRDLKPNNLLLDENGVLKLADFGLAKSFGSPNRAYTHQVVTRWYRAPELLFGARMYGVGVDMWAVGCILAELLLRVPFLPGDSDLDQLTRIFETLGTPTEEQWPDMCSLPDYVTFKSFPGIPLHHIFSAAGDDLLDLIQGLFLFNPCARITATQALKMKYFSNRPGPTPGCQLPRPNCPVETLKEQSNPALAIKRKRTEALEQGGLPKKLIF

| IC50 [1] [nM] | IC50 [2] [nM] | IC50 [3] [nM] | Structure (SMILES) |
| --- | --- | --- | --- |
| 5 to 10 | 500 to 2500 | > 2500 | CC(C)c1cnn2c(NCc3ccccc3-n3cccn3)nc(NCCN)nc12 [(VIII-051), N4-(2-(1H-pyrazol-1-yl)benzyl)-N2-(2-aminoethyl)-8-isopropylpyrazolo[1,5-a][1,3,5]triazine-2,4-diamine] |
| > 25 | > 2500 | > 2500 | CC(C)c1cnn2c(NCc3ccccc3-n3cccn3)nc(NCC3CCNC3)nc12 (stereo not drawn) [(VIII-052), N4-(2-(1H-pyrazol-1-yl)benzyl)-8-isopropyl-N2-(pyrrolidin-3-ylmethyl)pyrazolo[1,5-a][1,3,5]triazine-2,4-diamine] |
| > 25 | > 2500 | > 2500 | CC(C)c1cnn2c(NCc3ccccc3-n3cccn3)nc(N3CCCC(N)C3)nc12 (stereo not drawn) [(VIII-053), N-(2-(1H-pyrazol-1-yl)benzyl)-2-(3-aminopiperidin-1-yl)-8-isopropylpyrazolo[1,5-a][1,3,5]triazin-4-amine] |
| > 25 | > 2500 | > 2500 | CC(C)c1cnn2c(NCc3ccccc3-n3cccn3)nc(N3CCC(N)C3)nc12 (stereo not drawn) [(VIII-054), N-(2-(1H-pyrazol-1-yl)benzyl)-2-(3-aminopyrrolidin-1-yl)-8-isopropylpyrazolo[1,5-a][1,3,5]triazin-4-amine] |
| > 25 | > 2500 | > 2500 | COC(=O)C(CN)Nc1nc(NCc2ccccc2-n2cccn2)n2ncc(C(C)C)c2n1 (stereo not drawn) [(VIII-055), methyl 2-((4-((2-(1H-pyrazol-1-yl)benzyl)amino)-8-isopropylpyrazolo[1,5-a][1,3,5]triazin-2-yl)amino)-3-aminopropanoate] |
| < 5 | 50 to 500 | 500 to 2500 | CC(C)c1cnn2c(NCc3ccccc3-n3cccn3)nc([S+]([O-])C3CCNCC3)nc12 (stereo not drawn) [(X-1), N-(2-(1H-pyrazol-1-yl)benzyl)-8-isopropyl-2-(piperidin-4-ylsulfinyl)pyrazolo[1,5-a][1,3,5]triazin-4-amine] |
| < 5 | 50 to 500 | 50 to 500 | CC(C)c1cnn2c(NCc3ccccc3-c3cccs3)nc([S+]([O-])C3CCNCC3)nc12 (stereo not drawn) [(X-2), 8-isopropyl-2-(piperidin-4-ylsulfinyl)-N-(2-(thiophen-2-yl)benzyl)pyrazolo[1,5-a][1,3,5]triazin-4-amine] |
| 10 to 25 | 500 to 2500 | > 2500 | CC(C)c1cnn2c(NCc3ccccc3-c3ccccc3)nc([S+]([O-])C3CCNCC3)nc12 (stereo not drawn) [(X-3), N-([1,1′-biphenyl]-2-ylmethyl)-8-isopropyl-2-(piperidin-4-ylsulfinyl)pyrazolo[1,5-a][1,3,5]triazin-4-amine] |
| < 5 | 50 to 500 | 500 to 2500 | CC(C)c1cnn2c(NCc3ccccc3-n3cncn3)nc([S+]([O-])C3CCNCC3)nc12 (stereo not drawn) [(X-4), N-(2-(1H-1,2,4-triazol-1-yl)benzyl)-8-isopropyl-2-(piperidin-4-ylsulfinyl)pyrazolo[1,5-a][1,3,5]triazin-4-amine] |
| < 5 | 500 to 2500 | > 2500 | Cc1nccn1-c1ccccc1CNc1nc([S+]([O-])C2CCNCC2)nc2c(C(C)C)cnn12 (stereo not drawn) [(X-5), 8-isopropyl-N-(2-(2-methyl-1H-imidazol-1-yl)benzyl)-2-(piperidin-4-ylsulfinyl)pyrazolo[1,5-a][1,3,5]triazin-4-amine] |
| < 5 | > 2500 | > 2500 | CC(C)c1cnn2c(NCc3ccccc3-n3cccn3)nc(S(=O)(=O)C3CCNCC3)nc12 [(X-7), N-(2-(1H-pyrazol-1-yl)benzyl)-8-isopropyl-2-(piperidin-4-ylsulfonyl)pyrazolo[1,5-a][1,3,5]triazin-4-amine] |
| < 5 | 50 to 500 | > 2500 | CC(C)c1cnn2c(NCc3ccccc3-n3cccn3)nc(S[C@@H]3CCCNC3)nc12 [(X-8), (R)-N-(2-(1H-pyrazol-1-yl)benzyl)-8-isopropyl-2-(piperidin-3-ylthio)pyrazolo[1,5-a][1,3,5]triazin-4-amine] |
